Tested on: rat anxiety behavior induced by high-dose intake of caffeine
Test: Elevated plus-maze test, Test 1: CBD against caffeine-induced anxiety behavior
Assay type: in vivo, wistar rats
Method: Test Animals: 50 SPF male wistar rats (180-200 g). Feeding Conditions: SPF animal houses, free feeding, 12 h light/12 h darkness.
Each CBD administration group was also intragastrically administrated with a corresponding dose of a CBD soybean oil solution at the same time, and then an elevated plus-maze test was conducted within 30 minutes after administration.
Elevated Plus-maze (EMP) Test: A maze was cross-shaped and consists of 2 open arms (OAs), two closed arms (CAs) and a central platform. The maze was fixed on a support, 50 cm above the ground. A camera was placed above the central platform. The behaviors of rats were recorded and analyzed through a computer. The test was conducted in a quiet shaded condition. Before the test, the rats to be tested were placed in one rat cage. After freely exploring for 5 minutes, the rats were quickly placed on the central platform of the EMP. The observation test was started immediately after release. Each rat was tested for five minutes. After each rat was tested, the maze was thoroughly cleaned with a towel dipped in clean water and low-concentration ethanol. After the ethanol volatilizes and diffuses, the test on the next rat began.
(1) Open arm entry (OE): the number of entries into any open arm was based on the fact that four paws of each rat were located within the arms, and when any paw was completely withdrawn from the arms halfway, the current entry event was deemed as being completed.
(2) Open arm time (OT): it was measured in second.
(3) Closed arm entry (CE): the number of entries into any closed arm, which was determined based on the same standard as OE.
(4) Closed arm time (CT): it was measured in second.
(5) Calculation of the proportion of the number of entries into the open arm (OE %): namely, OE/(OE+CE)×100%.
(6) Proportion of residence time in the open arms (OT %): namely, OT/(OT+CT)×100%. OE % and OT % were used as indexes for evaluating the anxiety state of rats.
The data was expressed with x±s. One-way analysis of variance (one way ANOVA) was used to compare multi-sample means, and t test was used for inter-group comparison.

[1] = CBD 1 mg/kg intragastric together with 60 mg/kg caffeine
[2] = CBD 10 mg/kg intragastric together with 60 mg/kg caffeine
[3] = CBD 100 mg/kg intragastric together with 60 mg/kg caffeine
[4] = caffeine model group, 60 mg/kg caffeine intragastric, no CBD

C=C(C)[C@@H]1CCC(C)=C[C@H]1c1c(O)cc(CCCCC)cc1O [CBD, Cannabidiol]
OE (open arm entry) (CBD 1 mg/kg in soybean oil intragastric together with 60 mg/kg caffeine): 3.2 ± 0.45 times | CE (closed arm entry) [1]: 7.0 ± 0.92 times | CT (closed arm time) [1]: 244 ± 5.14 s | OE % (proportion of entries into the open arm) [1]: 31.37% | OT % (proportion of residence time in the open arms) [1]: 19.24% | OT (open arm time) [1]: 58.1 ± 3.30 s | CE (closed arm entry) [2]: 5.3 ± 1.07 times | CT (closed arm time) [2]: 214 ± 4.01 s | OE % (proportion of entries into the open arm) [2]: 47.52% | OE (open arm entry) [2]: 4.8 ± 0.91 times | OT % (proportion of residence time in the open arms) [2]: 28.43% | OT (open arm time) [2]: 85 ± 2.07 s | CE (closed arm entry) [3]: 4.5 ± 0.91 times | CT (closed arm time) [3]: 201 ± 3.05 s | OE % (proportion of entries into the open arm) [3]: 54.00% | OE (open arm entry) [3]: 5.4 ± 0.25 times | OT % (proportion of residence time in the open arms) [3]: 33.22% | OT (open arm time) [3]: 100 ± 1.32 s | effect on the anxiety behavior of rats (in words) (CBD 1-100 mg/kg intragastric together with 60 mg/kg caffeine): significant effect on inhibiting the anxiety behavior

Cn1c(=O)c2c(ncn2C)n(C)c1=O [Caffeine]
CE (closed arm entry) [4]: 7.8 ± 0.11 times | CT (closed arm time) [4]: 253 ± 5.09 s | OE % (proportion of entries into the open arm) [4]: 21.21% | OT (open arm time) [4]: 42.9 ± 1.89 s | OE (open arm entry) (caffeine model group, 60 mg/kg caffeine saline solution intragastric, no CBD, EPM within 30 min, 5 min test): 2.1 ± 0.78 times
